Several values for one entry are separate records, joined by “and”; a condition that tells them apart may be missing. Equal entries are not always repeated.
How the values were obtained:
[1] = test system: Adriamycin (ADR)-induced nephropathy in Balb/c mice; assay: ADR nephropathy: kidney cortex lipids (cholesterol ester, total cholesterol, triglycerides, Oil-red O); format: in vivo, mouse
Description: OCT embedded kidney cortex samples were cryosectioned at 4 μm thickness and stained with Oil-Red O-isopropanol solution (Electron Microscopy Science, PA) diluted 6:4 in water, and then counterstained with Hematoxylin Harris Hg Free (VWR, PA). Sections were then evaluated using a light microscope (Olympus BX 41, Tokyo, Japan).
Snap frozen kidney cortex samples were homogenized in 2 mM potassium phosphate buffer, pH 7, (10 µl buffer/mg tissue) using a glass douncer on ice. 100 μl of the homogenate were mixed thoroughly with 1 ml of hexane:isopropanol (3:2;v:v) per volume of tissue homogenate. The aqueous (pellet) and organic (supernatant) phases were separated by centrifugation at 12,000 × g for 5 min. Pellets (aqueous phase) were dried, reconstituted in 8 M urea, 0.1% SDS, 0.1 M NaOH, and total proteins were quantified by the BCA method (Thermofisher). The organic phase was dried by exposure to nitrogen. Lipids were then reconstituted in 100 µl isopropanol:NP-40 (9:1;v:v). Triglyceride content was assayed using a colorimetric kit according to the manufacturer’s instructions (Cayman Chemical USA). Total cholesterol and CE content were assayed using an enzymatic fluorometric method. For total cholesterol measurement, extracts were diluted 1:100 in assay buffer (100 mM potassium phosphate, 50 mM NaCl, 5 mM cholic acid, 0.1% Triton […], pH 7.4) containing cholesterol oxidase (1 U/ml), cholesterol esterase (1 U/ml), horseradish peroxidase (1 U/ml), and Amplex Red (75 µM). The reactions were incubated at 37 °C for 30 min in a black opaque 96-well plate (Greiner) and fluorescence was measured in a microplate reader (Spectramax i3X, Molecular Devices) at 530 nm excitation and 580 emission.
For CE determination, 150 µl of the assay buffer described above, supplemented with bovine liver catalase (45 U/ml) and cholesterol oxidase (1 U/ml), was added to 25 μl of sample and incubated overnight at 37 °C to deplete free cholesterol leaving only cholesterol esters. Then, 75 µl of cholesterol ester detection reagent (1 U/ml cholesterol oxidase, 4 U/ml cholesterol esterase, 24 U/ml horseradish peroxidase, 300 µM Amplex Red) was added. The reaction was incubated at 37 °C for 30 min and the fluorescence signal was measured as described above. Internal standards included samples containing 1 mM of cholesterol and 5 μM of cholesterol oleate in order to verify the completeness of the enzymatic decomposition of free cholesterol as well as assay sensitivity and specificity.

[2] = test system: Adriamycin (ADR)-induced nephropathy in Balb/c mice; assay: Adriamycin-induced nephropathy, dose-finding pilot study: ACR and body weight time course; conditions: ADR, 10 mg/Kg/day, individual mice, 10 mg/kg/day
[3] = test system: Adriamycin (ADR)-induced nephropathy in Balb/c mice; assay: ADR nephropathy: liver total cholesterol, cholesterol esters, triglycerides; format: in vivo, mouse
[4] = test system: ABCA1 protein; assay: Cell fractionation: ABCA1 in plasma membrane and microsomal fractions of podocytes; format: cell-based, human; conditions: ratio; Cpd C 1 µM, Cpd A 5 µM, Cpd G 10 µM; single preparations
Description: Lysates, or cell fractions were incubated in Laemmli buffer at 55 °C for 10 min under reducing conditions. A total of 30 μg of protein from cell lysates or one-third of the volume collected in cell fraction preparations was separated by SDS-PAGE in 4–20% gradient gels (Biorad) and proteins were then transferred to PVDF membranes. After blocking with 5% TBS-milk, membranes were probed with primary antibodies overnight at 4 °C. The following primary antibodies were used: mouse anti-ABCA1 (Abcam; 1:1000), rabbit anti-GAPDH antibody (Millipore; 1:10,000), mouse anti-actin (CP01, Millipore 1:10,000), anti-MEK, anti-ERp72, anti-V5 and anti-Na^+/K^+ ATPase (Cell Signaling; all 1:1000), and rabbit anti-OSBPL7 (Sigma; 1:1000). After washing, membranes were incubated with anti-rabbit or and anti-mouse IgG-HRP antibodies (Promega, 1:10,000). Signals were detected after incubation with Westernbright ECL HRP substrate (Advansta) and luminescence signals were captured with Azure C600 Gel Imaging workstation (Azure Biosystems Inc, USA) or X-ray films.
Differentiated podocytes were treated with compounds Cpd C (1 μM), Cpd A (5 μM), or Cpd G (10 μM) for 18 h, washed and then harvested in ice-cold PBS. Cells were centrifuged at 1000 × g for 5 min, the supernatant was carefully removed, and the pellet resuspended in hypotonic buffer (15 mM KCl, 1.5 mM MgCl2, 10 mM HEPES and 1 mM DTT) supplemented with a protease inhibitor cocktail (Roche). Cells were disrupted with a glass douncer, and sucrose was added to achieve final concentration of 227 mM. Cell lysates were centrifuged at 1000 × g for 30 min at 4 °C. The supernatant was then transferred to a new tube and centrifuged at 10,000 × g for 15 min at 4 °C. The pellet, containing the microsomal fraction was collected and the supernatant was transferred to a new tube and centrifuged at 100,000 × g for 1 h at 4 °C. The pelleted plasma membrane fraction was collected and the supernatant, containing the organelle-free cytosolic fraction, was concentrated in Vivaspin 500 filter columns. Western blot was performed using antibodies for ABCA1 and specific markers for each membrane fraction as described above. Na^+/K^+ ATPase was used to identify the plasma membrane fraction, ERp72 as a marker for the microsomal-enriched fraction, and MEK as the control for the non-membranous cytosolic fraction.

[5] = test system: Adriamycin (ADR)-induced nephropathy in Balb/c mice; assay: Adriamycin-induced nephropathy, main study: albumin/creatinine ratio and body weight

## Cc1oc(-c2cccc(C(F)(F)F)c2)nc1Cn1c(C)cc2cc(C(O)(C(F)(F)F)C(F)(F)F)ccc21 [Cpd C, reference compound]
[1]; ADR model, individual animals
  KIDNEY CORTEX TOTAL CHOLESTEROL: 169.86 nmol Chol./mg protein and 129.15 nmol Chol./mg protein and 254.63 nmol Chol./mg protein and 268.95 nmol Chol./mg protein and 152.74 nmol Chol./mg protein and 180.44 nmol Chol./mg protein and 182.39 nmol Chol./mg protein and 272.02 nmol Chol./mg protein and 254.98 nmol Chol./mg protein
  KIDNEY CORTEX TRIGLYCERIDES: 43.01 nmol Triglyceride /mg protein and 83.04 nmol Triglyceride /mg protein and 58.7 nmol Triglyceride /mg protein and 29.67 nmol Triglyceride /mg protein and 36.87 nmol Triglyceride /mg protein and 243.76 nmol Triglyceride /mg protein and 196.92 nmol Triglyceride /mg protein and 133.68 nmol Triglyceride /mg protein and 574.71 nmol Triglyceride /mg protein
[1]; ADR, Cpd C 10 mg/Kg
  Animals with higher triglyceride content in kidney cortexes: about 30%
[2]; 0 days after inj
  Body Weight: 20 grams and 18 grams (2×) and 19 grams (2×)
[2]; 7 days after inj
  ACR in spot urine: 0.033 mg Albumin/ mg Creatinine in urine and 0.087 mg Albumin/ mg Creatinine in urine and 0.021 mg Albumin/ mg Creatinine in urine and 0.039 mg Albumin/ mg Creatinine in urine and 0.361 mg Albumin/ mg Creatinine in urine
  Body Weight: 19 grams (2×) and 17 grams and 18 grams (2×)
[2]; 14 days after inj
  ACR in spot urine: 43.998 mg Albumin/ mg Creatinine in urine and 97.732 mg Albumin/ mg Creatinine in urine and 170.881 mg Albumin/ mg Creatinine in urine and 0.773 mg Albumin/ mg Creatinine in urine and 96.907 mg Albumin/ mg Creatinine in urine
  Body Weight: 18 grams (2×) and 15 grams and 17 grams (2×)
[2]; 21 days after inj
  ACR in spot urine: 110.345 mg Albumin/ mg Creatinine in urine and 164.518 mg Albumin/ mg Creatinine in urine and 91.2 mg Albumin/ mg Creatinine in urine and 9.219 mg Albumin/ mg Creatinine in urine and 93.57 mg Albumin/ mg Creatinine in urine
  Body Weight: 18 grams (2×) and 13 grams and 19 grams and 16 grams
[2]; 28 days after inj
  ACR in spot urine: 28.989 mg Albumin/ mg Creatinine in urine and 87.25 mg Albumin/ mg Creatinine in urine and 19.88 mg Albumin/ mg Creatinine in urine and 5.463 mg Albumin/ mg Creatinine in urine and 97.01 mg Albumin/ mg Creatinine in urine
  Body Weight: 19 grams (2×) and 13 grams and 20 grams and 16 grams
[3]; ADR model, individual animals
  LIVER CHOLESTEROL ESTERS: 3.92 nmol CE/ mg protein and 1.48 nmol CE/ mg protein and 3.2 nmol CE/ mg protein and 3.1 nmol CE/ mg protein
  LIVER TOTAL CHOLESTEROL: 132 nmol Cholesterol/ mg protein and 89 nmol Cholesterol/ mg protein and 311 nmol Cholesterol/ mg protein and 91 nmol Cholesterol/ mg protein
  LIVER TRIGLICERIDES: 48.5 nmol Triglycerides/ mg protein and 45 nmol Triglycerides/ mg protein and 67 nmol Triglycerides/ mg protein and 56 nmol Triglycerides/ mg protein
[3]; ADR-challenged, 28 days
  Hepatic triglyceride content vs. vehicle-treated controls: increased hepatic triglyceride content
[4]
  MICROSOMAL FRACTION:ABCA1/ERp72: 1.10 and 1.82 and 1.06
  PLASMA MEMBRANE FRACTION: ABCA1/NaK ATPase: 1.10 and 0.65 and 0.77 and 1.14
[5]; 28 days after ADR
  Effect on weight loss: no significant effect to prevent weight loss
[5]; 28 days after ADR, Cpd A 30, Cpd G 100, Cpd C 10 mg/Kg, group median
  ACR, median: 6.591 mg albumin/mg creatinine
[5]; Cpd C 10 mg/Kg, 28 days
  Reduction in ACR: more variable reduction in ACR
[5]; animal weight when therapy finished, single animals
  Weight (d28): 19 and 13 and 20 and 16 and 22 and 17 and 18
[5]; day 28 after ADR, Cpd A 30, Cpd G 100, Cpd C 10 mg/Kg
  Weight Change (as % of weight at day 0), Median: -5%
[5]; day 28 after ADR, Cpd A 30, Cpd G 100, Cpd C 10 mg/Kg, single animals
  Weight Change (as % of weight at day 0): 5.3% and 5.6% and -15.8% and 4.8% and -15% and 0% and -10% and -5% and -27.8%
[5]; spot urine 28 days after ADR, oral daily Cpd A 30, Cpd G 100, Cpd C 10 mg/Kg, single animals
  ACR values (mg Albumin / mg Creatinine): 97.01 mg Albumin / mg Creatinine and 0.196 mg Albumin / mg Creatinine and 5.6 mg Albumin / mg Creatinine and 6.591 mg Albumin / mg Creatinine and 5.609 mg Albumin / mg Creatinine and 28.989 mg Albumin / mg Creatinine and 87.25 mg Albumin / mg Creatinine and 19.88 mg Albumin / mg Creatinine and 5.463 mg Albumin / mg Creatinine

Source: publication PMC8329197, “Compounds targeting OSBPL7 increase ABCA1-dependent cholesterol efflux preserving kidney function in two models of kidney disease” (Nature Communications, 2021)
